Laboratory results as given in patent US4604406A, “N-[6-methoxy-5-(perfluoroalkyl)-1-naphtholyl]-N-methylglycines and their thionaphthoyl analogs” (Ayerst, McKenna & Harrison, Inc., priority 1984, dated 1986).
Each block holds one compound with its values, some of them ahead of it.

Experiments:
[1] = target: aldose reductase (Homo sapiens, UniProt P15121); conditions: literature report; cited from earlier work
[2] = test system: dulcitol accumulation in the diaphragm; assay: % lowering dulcitol accumulation in vivo, diaphragm (D), galactosemic rats; parameters: species or system rat (Sprague-Dawley); conditions: 4 days
Text: (§1) Such experiments are exemplified hereinbelow after the listing of the following general comments pertaining to these experiments:
(§2) (a) Four or more groups of six male rates, 50-70 g, Sprague-Dawley strain, were used. The first group, the control group, was fed a mixture of laboratory chow (rodent laboratory chow, Purina) and glucose at 20% (w/w %) concentration. The untreated galactosemic group was fed a similar diet in which galactose is substituted for glucose. The third group was fed a diet prepared by mixing a given amount of the test compound with the galactose containing diet. The concentration of galactose in the diet of the treated groups was the same as that for the untreated galactosemic group.
(§3) Only two minor reagent changes were made: (a) The rinsing mixture was an aqueous 5% (w/v) trichloroacetic acid solution and (b) the stock solution was prepared by dissolving 25 mg of dulcitol in 100 ml of an aqueous trichloroacetic acid solution. [N.B.: For each experiment the average value found in the tissue from rats fed the glucose diet was subtracted from the individual values found in the corresponding rat tissue to obtain the amount of polyol accumulated.]
(§4) The figures under L, N and D represent the percentage decrease of dulcitol accumulation in the tissues of the lens, sciatic nerve and diaphragm, respectively, for treated rats as compares to untreated rats.

[3] = test system: dulcitol accumulation in the lens; assay: % lowering dulcitol accumulation in vivo, lens (L), galactosemic rats; parameters: species or system rat (Sprague-Dawley); conditions: 4 days
Text: as §1, §2
(§5) (b) After four days, the animals were killed by decapitation. The eyeballs were removed and punctured with a razor blade; the freed lenses were rolled gently on filter paper and weighed. The sciatic nerves were dissected as completely as possible and weighed. Both tissues were frozen and can be kept up to two weeks before being analyzed for dulcitol.
as §3, §4

[4] = target: aldose reductase (Bos taurus, UniProt P16116); assay: % inhibition in vitro at 10^-7 M (aldose reductase inhibition); format: biochemical
[5] = test system: dulcitol accumulation; assay: galactosemic rats, dulcitol accumulation, overall comparison in words; format: in vivo, rat (Sprague-Dawley)
Text: The aldose reductase inhibiting property of the compounds of this invention and the utilization of the compounds in preventing, diminishing and alleviating diabetic complications are demonstrable in experiments using galactosemic rats, see Dvornik et at., cited above. Such experiments are exemplified hereinbelow after the listing of the following general comments pertaining to these experiments:
as §2, §5
as §3, with “(c) The polyol determination was performed by a modification of the procedure of M. Kraml and L. Cosyns, Clin. Biochem., 2,373 (1969). Only” for “Only”
as §4

[6] = 24.5 mg/kg/day in galactose diet

SMILES: O=C(O)CN1C(=O)c2cccc3cccc(c23)C1=O [1,3-Dioxo-1H-benz[de]isoquinoline-2(3H)-acetic acid]
inhibition of aldose reductase [1]: effective inhibitor of aldose reductase

inhibition at 0.1 µM [4]: 71%
SMILES: COc1ccc2c(C(=S)N(C)CC(=O)O)cccc2c1C(F)(F)C(F)(F)F [Compound 1, N-[[6-methoxy-5-(pentafluoroethyl)-1-naphthalenyl]thioxomethyl]-N-methylglycine]
% lowering dulcitol accumulation in vivo, D [2, 6]: 93%
% lowering dulcitol accumulation in vivo, L [3, 6]: 29%

inhibition at 0.1 µM [4]: 56%
SMILES: COc1ccc2c(C(=O)N(C)CC(=O)O)cccc2c1C(F)(F)C(F)(F)F [Compound 2, N-[[6-Methoxy-5-(pentafluoroethyl)-1-naphthalenyl]carbonyl]-N-methylglycine]
% lowering dulcitol accumulation in vivo, D ([2]; 29 mg/kg/day in galactose diet): 68%

SMILES: COc1ccc2c(C(=S)N(C)CC(=O)O)cccc2c1C(F)(F)C(F)(F)C(F)(F)F [Compound 3, N-[[5-(heptafluoropropyl)-6-methoxy-1-naphthalenyl]thioxomethyl]-N-methylglycine]
% lowering dulcitol accumulation in vivo, D ([2]; 5 mg/kg/day in galactose diet): 76%
% lowering dulcitol accumulation in vivo, L ([3]; 5 mg/kg/day in galactose diet): 20%
inhibition at 0.1 µM [4]: 75%
activity compared with tolrestat at 4 mg/kg/day ([5]; 5 mg/kg/day): superior to tolrestat
activity compared with tolrestat at 11 mg/kg/day ([5]; 5 mg/kg/day): approaches the activity of tolrestat
activity relative to tolrestat ([5]; about twice as active as tolrestat): about twice

SMILES: COc1ccc2c(C(=O)N(C)CC(=O)O)cccc2c1C(F)(F)C(F)(F)C(F)(F)F [Compound 4, N-[[5-(heptafluoropropyl)-6-methoxy-1-naphthalenyl]carbonyl]-N-methylglycine]
% lowering dulcitol accumulation in vivo, D ([2]; 10 mg/kg/day in galactose diet): 38%
% lowering dulcitol accumulation in vivo, L ([3]; 10 mg/kg/day in galactose diet): 19%
inhibition at 0.1 µM [4]: 63%
activity compared with compound No. 7 (tolrestat) at 11 mg/kg/day ([5]; 10 mg/kg/day): comparable results

SMILES: COc1ccc2c(C(=S)N(C)CC(=O)O)cccc2c1C(F)(F)C(F)(F)C(F)(F)C(F)(F)C(F)(F)C(F)(F)F [Compound 5, N-[[6-Methoxy-5-(tridecafluorohexyl)-1-naphthalenyl]thioxomethyl]-N-methylglycine]
% lowering dulcitol accumulation in vivo, D ([2]; 26 mg/kg/day in galactose diet): 51%
% lowering dulcitol accumulation in vivo, L ([3]; 26 mg/kg/day in galactose diet): 0%
inhibition at 0.1 µM [4]: 40%

SMILES: COc1ccc2c(C(=O)N(C)CC(=O)O)cccc2c1C(F)(F)C(F)(F)C(F)(F)C(F)(F)C(F)(F)C(F)(F)F [Compound 6, N--[[5-(Tridecafluorohexyl)-6-methoxy-1-naphthalenyl]carbonyl]-N--methylglycine]
% lowering dulcitol accumulation in vivo, D ([2]; 25 mg/kg/day in galactose diet): 0%
% lowering dulcitol accumulation in vivo, L ([3]; 25 mg/kg/day in galactose diet): 0%
inhibition at 0.1 µM [4]: 47%

SMILES: COc1ccc2c(C(=S)N(C)CC(=O)O)cccc2c1C(F)(F)F [Compound 7, N--[[5-(Trifluoromethyl)-6-methoxy-1-naphthalenyl]thioxomethyl]-N--methylglycine, reference compound]
% lowering dulcitol accumulation in vivo, D ([2]; 11 mg/kg/day in galactose diet): 89%

inhibition at 0.1 µM [4]: 57%
SMILES: COc1ccc2c(C(=O)N(C)CC(=O)O)cccc2c1C(F)(F)F [Compound 8, N--[ [5-(Trifluoromethyl)-6-methoxy-1-naphthalenyl]carbonyl]-N--methylglycine, reference compound]
% lowering dulcitol accumulation in vivo, D ([2]; 10 mg/kg/day in galactose diet): 20%
% lowering dulcitol accumulation in vivo, L ([3]; 10 mg/kg/day in galactose diet): 0%

SMILES: O=C1NC(=O)[C@@]2(CCOc3ccc(F)cc32)N1 [sorbinol, (S)-6-Fluoro-2,3-dihydrospiro(4H-1-benzopyran-4,4'-imidazolidine)-2',5'-dione]
inhibition of aldose reductase [1]: aldose reductase inhibiting properties
